Drawing on patent US20230049231A1 (priority 2019, published 2023), this text covers IC50 for eleven compounds.

Experiment [1] has as its target T1, hERG channel (Homo sapiens, UniProt Q12809).
T1 construct: expressed in transfected cells
Description: hERG electrophysiology, automated whole-cell patch clamp (Patchliner). In kind it is cell-based. A digest of the protocol:
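Automated whole-cell patch clamp on CHO-K1 cells stably expressing hERG; 30 nM–100 μM applied cumulatively to the same cell, ≤0.3% DMSO. Pulses: −80 mV holding, +20 mV for 300 ms, −50 mV for 300 ms tail, 0.3 Hz, 70 per concentration. Last-pulse AUC and peak, normalized to control, were fitted to a Hill equation for IC50.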

Experiment [2] deals with T2, Kv1.3 potassium channel (Homo sapiens, UniProt P22001).
T2 construct: expressed in transfected cells
Description: Kv1.3 potassium channel blocker activity, automated whole-cell patch clamp (Patchliner). In kind it is cell-based. The gist of the method: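 IC50 came from Hill-equation fits of peak and AUC currents from the final pulse at each concentration, normalized to compound-free control. Compounds applied consecutively at 30 nM to 100 μM (up to 0.3% DMSO) to Kv1.3-expressing CHO-K1 cells, P/4 leak subtraction. Pulses were +40 mV, 100 ms, from −90 mV holding, at 0.1 Hz on Patchliner.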
For orientation: Patch clamp records ionic current or voltage across a cell membrane.

Setting [3] is: hERG channel, whole-cell patch clamp.
The mark [4] stands for this setting: Kv1.3 potassium channel, whole-cell patch clamp.

Structures are written as SMILES. Some results are limits rather than exact numbers.

T2 sequence (P22001 whole entry): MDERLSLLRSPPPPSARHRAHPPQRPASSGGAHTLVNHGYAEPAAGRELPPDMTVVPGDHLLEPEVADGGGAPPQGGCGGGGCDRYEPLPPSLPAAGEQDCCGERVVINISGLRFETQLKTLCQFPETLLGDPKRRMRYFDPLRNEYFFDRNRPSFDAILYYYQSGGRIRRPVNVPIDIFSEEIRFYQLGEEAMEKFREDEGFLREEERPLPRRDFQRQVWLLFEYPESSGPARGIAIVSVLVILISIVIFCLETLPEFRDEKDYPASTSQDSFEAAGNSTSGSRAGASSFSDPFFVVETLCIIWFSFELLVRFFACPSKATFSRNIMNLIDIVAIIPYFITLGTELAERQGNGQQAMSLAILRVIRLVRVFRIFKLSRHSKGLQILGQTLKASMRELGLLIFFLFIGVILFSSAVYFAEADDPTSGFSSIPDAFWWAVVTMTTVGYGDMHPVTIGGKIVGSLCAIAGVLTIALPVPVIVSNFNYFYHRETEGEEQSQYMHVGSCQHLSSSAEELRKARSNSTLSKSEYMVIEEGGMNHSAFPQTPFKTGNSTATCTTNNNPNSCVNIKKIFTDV
T1 sequence (Q12809 whole entry): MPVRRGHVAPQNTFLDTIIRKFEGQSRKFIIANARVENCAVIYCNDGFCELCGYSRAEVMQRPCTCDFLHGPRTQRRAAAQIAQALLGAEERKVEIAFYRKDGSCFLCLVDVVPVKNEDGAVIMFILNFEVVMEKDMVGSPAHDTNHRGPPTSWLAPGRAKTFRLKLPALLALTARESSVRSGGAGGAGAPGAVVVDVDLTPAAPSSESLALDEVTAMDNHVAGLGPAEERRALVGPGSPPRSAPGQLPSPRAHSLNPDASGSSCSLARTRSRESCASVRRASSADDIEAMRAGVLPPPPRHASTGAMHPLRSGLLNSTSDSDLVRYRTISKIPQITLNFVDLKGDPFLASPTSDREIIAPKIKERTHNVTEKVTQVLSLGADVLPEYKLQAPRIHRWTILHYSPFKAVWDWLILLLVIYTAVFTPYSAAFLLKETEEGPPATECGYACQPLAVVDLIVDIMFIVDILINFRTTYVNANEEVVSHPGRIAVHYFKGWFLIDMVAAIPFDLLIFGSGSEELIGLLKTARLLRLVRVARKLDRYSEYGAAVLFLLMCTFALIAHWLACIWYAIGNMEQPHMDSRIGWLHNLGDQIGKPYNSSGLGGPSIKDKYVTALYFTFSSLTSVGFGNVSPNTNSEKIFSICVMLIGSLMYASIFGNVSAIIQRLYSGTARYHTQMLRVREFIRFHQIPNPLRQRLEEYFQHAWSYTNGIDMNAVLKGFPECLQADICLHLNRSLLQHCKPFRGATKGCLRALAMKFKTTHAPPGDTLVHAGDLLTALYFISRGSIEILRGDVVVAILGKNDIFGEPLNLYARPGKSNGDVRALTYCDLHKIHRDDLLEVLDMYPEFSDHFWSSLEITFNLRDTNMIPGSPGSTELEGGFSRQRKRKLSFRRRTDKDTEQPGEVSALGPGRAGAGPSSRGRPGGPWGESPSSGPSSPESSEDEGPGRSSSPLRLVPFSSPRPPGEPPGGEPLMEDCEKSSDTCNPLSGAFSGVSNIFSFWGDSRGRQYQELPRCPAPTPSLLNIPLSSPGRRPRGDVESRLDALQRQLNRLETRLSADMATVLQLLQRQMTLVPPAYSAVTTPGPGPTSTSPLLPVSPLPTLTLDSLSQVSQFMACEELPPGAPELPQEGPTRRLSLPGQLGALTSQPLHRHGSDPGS

With `O=C(CC(O)C(F)F)N1CC(=O)N2C[C@@H](c3c(O)ccc(Cl)c3Cl)C[C@H]2C1` (stereo partly drawn) [Compound 73, (7R,8aS)-7-(2,3-dichloro-6-hydroxyphenyl)-2-(4,4-difluoro-3-hydroxybutanoyl)-hexahydropyrrolo [1,2-a]pyrazin-4-one], the figures for the IC50 in experiment [1] (setting [3]) and in experiment [2] (setting [4]) were above 30 µM and below 1 µM, respectively.

On to `O=C1OC[C@@H]2C[C@H](c3c(O)ccc(Cl)c3Cl)CN12` [Compound 251, (6R,7aS)-6-(2,3-dichloro-6-hydroxyphenyl)-tetrahydro-1H-pyrrolo[1,2-c][1,3]oxazol-3-one], for which the values for the IC50 in experiment [1] (setting [3]) and in experiment [2] (setting [4]) were below 30 µM and below 1 µM, respectively.

For the compound `O=C1O[C@@H](CCO)[C@@H]2C[C@H](c3c(O)ccc(Cl)c3Cl)CN12` (single isomer, unassigned) [Compound 271], the IC50 – broadly, the midpoint of a concentration-inhibition curve – in experiment [1] (setting [3]) is below 30 µM; in experiment [2] (setting [4]), below 1 µM.

With `NC(=O)CC1OC[C@@H]2C[C@H](c3c(O)ccc(Cl)c3Cl)CCN2C1=O` (stereo partly drawn) [Compound 187, 2-[(8R,9aS)-8-(2,3-dichloro-6-hydroxyphenyl)-4-oxo-hexahydro-1H-pyrido[2,1-c][1,4]oxazin-3-yl]acetamide], the IC50 is above 30 µM in experiment [1] (setting [3]) and below 1 µM in experiment [2] (setting [4]).

Regarding `CN[C@@H]1CC(=O)N2C[C@@H](c3c(O)ccc(Cl)c3Cl)C[C@H]2C1` (single isomer, unassigned) [Compound 198], the values for the half-inhibitory concentration (IC50) in experiment [1] (setting [3]) and in experiment [2] (setting [4]) were above 30 µM and below 1 µM, respectively.

For `CCNC(=O)N1CC(=O)N2C[C@@H](c3c(O)ccc(Cl)c3Cl)C[C@H]2C1` [Compound 35, (7R,8aS)-7-(2,3-dichloro-6-hydroxyphenyl)-N-ethyl-4-oxo-hexahydropyrrolo[1,2-a]pyrazine-2-carboxamide], the concentration for half-maximal inhibition (IC50) in experiment [1] (CHO-K1 cells stably expressing hERG, +20 mV 300 ms, -50 mV 300 ms tail current, 0.3 Hz) was above 30 µM; in experiment [2] (CHO-K1 cells stably expressing Kv1.3, 100 ms pulses from -90 mV to +40 mV, 0.1 Hz) it was below 1 µM.

In the case of `C[C@H](CO)N1CC(=O)N2C[C@@H](c3c(O)ccc(Cl)c3Cl)C[C@H]2C1` (single isomer, unassigned) [Compound 116], the 50% inhibitory concentration (IC50) in experiment [1] (setting [3]) was above 30 µM; in experiment [2] (setting [4]), below 1 µM.

As for `O=C1CN([C@H]2C[C@@H](O)[C@@H](O)C2)C[C@@H]2C[C@H](c3c(O)ccc(Cl)c3Cl)CN12` (relative stereo) [Compound 130, (7R,8aS)-7-(2,3-dichloro-6-hydroxyphenyl)-2-[(1R,3R,4S)-rel-3,4-dihydroxycyclopentyl]-hexahydropyrrolo [1,2-a]pyrazin-4-one], the IC50 in experiment [1] (setting [3]) was above 30 µM; in experiment [2] (setting [4]), below 1 µM.

For `C[C@@H](O)[C@@H](CO)N1CC(=O)N2C[C@@H](c3c(O)ccc(Cl)c3Cl)C[C@H]2C1` (relative stereo) [Compound 166, (7R,8aS)-7-(2,3-dichloro-6-hydroxyphenyl)-2-[(2R,3R)-rel-1,3-dihydroxybutan-2-yl]-hexahydropyrrolo[1,2-a]pyrazin-4-one], the values for the IC50 in experiment [1] (setting [3]) and in experiment [2] (setting [4]) were above 30 µM and below 1 µM, respectively.

For `O=C1O[C@@H](CN2CCOCC2)[C@@H]2C[C@H](c3c(O)ccc(Cl)c3Cl)CN12` (single isomer, unassigned) [Compound 284], the IC50 was above 30 µM in experiment [1] (setting [3]) and below 1 µM in experiment [2] (setting [4]).

Regarding `O=C1CN(C[C@@H](O)CO)C[C@@H]2C[C@H](c3c(O)ccc(Cl)c3Cl)CN12` (single isomer, unassigned) [Compound 114], the values for the IC50 in experiment [1] (setting [3]) and in experiment [2] (setting [4]) were above 30 µM and below 1 µM, respectively.
